In US20060140858A1, “Drug pre-targeting by means of bi-specific antibodies and hapten constructs comprising a carrier peptide and the active agent(s)” (Immunomedics, Inc., priority 2002, published 2006):
Where two headings read alike, the source gives them in different places. *1 amine or outer side, *2 acyl side, *3 side chain or, on linkers, in order; H or OH if unused. Where a SMILES comes first, the peptide text is derived from it. Side-chain parts run from the residue outwards. [ ]: non-standard residue; d: D form. The star is where a group is joined. HSG = histamine succinyl glycyl group, O=C(CCC(=O)NCC(=O)*)NCCc1c[nH]cn1; DOTA = O=C(O)CN1CCN(CC(=O)O)CCN(CC(=O)*)CCN(CC(=O)O)CC1; NH(2-(imidazol-4-yl)ethyl) = c1ncc(CCN*)[nH]1; Suc = O=C(CCC(=O)[*:2])[*:1]

What was measured:
in vivo = assay: in vivo; parameters: species or system nude mice; conditions: female, NCr nude, mouse, total radioactivity, % ID/g
Experimental: (§1) GW-39, a CEA-producing human colon cancer cell line (See, Goldenberg, D. M. and Hansen, H. […] Female NCr nude mice Charles River Laboratories, Inc., Fredrick Md. or Taconic, Germantown, N.Y.) approximately 6 weeks of age were implanted subcutaneously with 0.2 ml of this suspension. […] At the designated times after the peptide injection, animals were anesthetized, bled by cardiac puncture, and then euthanized prior to necropsy. Tissues were removed, weighed and counted by gamma scintillation using appropriate windows for each radionuclide along with standards prepared from the injected materials. When dual isotope counting was used, appropriate backscatter correction was made. GI tissues (stomach, small intestine and large intestine were weighed and counted with their contents. Data are expressed as the percent injected dose per gram tissue (% ID/g) and the ratio of the percentages in the tumor to the normal tissues (T/NT). All values presented in the tables and figures represent the mean and standard deviation of the calculated values with the number of animals used for each study provided therein.

GW-39 [1] = assay: in vivo; parameters: species or system nude mice; conditions: mouse
Experimental: as §1

[2] = Comparison of ^177Lu-IMP-241 and ^111In-IMP-241 pretargeting using hMN-14 × m679 F(ab′)2 bsMAb (24 h bsMAb clearance); assay type: in vivo, nude mice; conditions: female, NCr nude, mouse, iv, total radioactivity, read-out: Percent Injected Dose Per Gram; for tissue uptake at 3 h: 3 hour after peptide; for tissue uptake at 24 h: 24 hour after peptide
Experimental: (§2) Female NCr nude mice Charles River Laboratories, Inc., Fredrick Md. or Taconic, Germantown, N.Y.) approximately 6 weeks of age were implanted subcutaneously with 0.2 ml of this suspension. Two to three weeks after implantation of tumors, animals were injected with the radiolabeled peptide alone, or for pretargeting, with the bsMAb followed 1 to 2 days later with the radiolabeled peptide. […] At the designated times after the peptide injection, animals were anesthetized, bled by cardiac puncture, and then euthanized prior to necropsy. Tissues were removed, weighed and counted by gamma scintillation using appropriate windows for each radionuclide along with standards prepared from the injected materials. When dual isotope counting was used, appropriate backscatter correction was made. GI tissues (stomach, small intestine and large intestine were weighed and counted with their contents. Data are expressed as the percent injected dose per gram tissue (% ID/g) and the ratio of the percentages in the tumor to the normal tissues (T/NT). All values presented in the tables and figures represent the mean and standard deviation of the calculated values with the number of animals used for each study provided therein.

[3] = Immunoreactive fraction of ^99mTc-hMN-14 Fab′; assay type: binding
Experimental: (§3) Humanized MN-14 (hMN-14) Fab′-SH was prepared in a similar manner as described previously. ^99mTc-pertechnetate (30 mCi) was added directly to the lyophilized hMN-14-Fab′-SH (1.0 mg) and injected in animals within 30 minutes. This product had 3.0% unbound ^99mTc by ITLC and an immunoreactive fraction of 92%.

GW-39 tumor = assay: Tumor/nontumor ratios for directly labeled ^99mTc-hMN-14 Fab′; assay type: in vivo, nude mice; conditions: 3 h after injection
Experimental: as §3, §2

679 IgG = assay: Binding of labeled peptide to excess 679 IgG by size exclusion HPLC; parameters: species or system murine; conditions: ^90Y labeled peptide
Experimental: The ^90Y (˜400 μCi/kit) was diluted to 1 mL in deionized water and added to the lyophilized kits. The kits were heated in a boiling water bath for 15 min, the vials were cooled to room temperature and the labeled peptides were evaluated by reverse phase HPLC (HPLC conditions: Waters Nova-Pak C-18, 8×100 mm RCM column eluted at 3 mL/min with a linear gradient from 100% (0.1% TFA in H2O) to 100% (90% CH3CN, 0.1% TFA, 10% H2O)).
The ^111In (˜300 μCi/kit) was diluted to 0.5 mL in deionized water and added to the lyophilized kits. The kits were heated in a boiling water bath for 15 min, the vials were cooled and 0.5 mL of 2.56×10^−5 M In in 0.5 M acetate buffer was added and the kits were again heated in the boiling water bath for 15 min. The labeled peptide vials were cooled to room temperature and evaluated by reverse phase HPLC (HPLC conditions: Waters Nova-Pak C-18, 8×100 mm RCM column eluted at 3 mL/min with a linear gradient from 100% (0.1% TFA in H2O) to 100% (90% CH3CN, 0.1% TFA, 10% H2O)).
The mixture was centrifuged and DTPA was added to a final concentration of 3 mM. After 15 min at room temperature, the final volume was raised to 1.0 mL with 0.1 M sodium acetate, pH 6.5. The amount of unbound isotope was determined by reverse phase HPLC and ITLC developed in saturated sodium chloride solution. […]

[4] = assay type: in vitro ADME, mouse
Text: The peptide was monitored as described above by HPLC.

GW-39 [5] = test system: GW-39; parameters: species or system nude mice; conditions: mouse, in vivo
Experimental: as §2

GW-39 [6] = assay: Comparison of ^177Lu-IMP-241 and ^111In-IMP-241 pretargeting using hMN-14 × m679 F(ab′)2 bsMAb (24 h bsMAb clearance); assay type: in vivo, nude mice; conditions: listed as 111In-IMP-241
Experimental: as §2

[7] = mouse, in vivo; cited from earlier work
[8] = Enzymatic analysis of carboxylesterase-DTPA conjugate; assay type: biochemical, rabbit
Experimental: (§4) After 1 hour of incubation, the mixture is pre-purified on two 5-mL spin-columns (Sephadex G50/80 in 0.1 M sodium phosphate pH 7.3) to remove excess reagent and DMSO. The eluate is purified on a TSK 3000G Supelco column using 0.2 M sodium phosphate pH 6.8 at 4 ml/min. The fraction containing conjugate is concentrated on a Centricon-10™ concentrator, and buffer-exchanged with 0.1 M sodium acetate pH 6.5. […] Incorporation by HPLC and ITLC analyses is 97.7%.

hMN-14 Fab′×734 Fab′ = assay: HPLC complexation of In-111 carboxylesterase-DTPA with bi-specific antibody; assay type: binding; conditions: 20-fold molar excess of hMN-14 Fab′×734 Fab′
Experimental: as §4

## NC(=O)[C@H](CCCCNC(=O)CNC(=O)CCC(=O)NCCc1cnc[nH]1)NC(=O)[C@@H](Cc1ccc(O)cc1)NC(=O)[C@H](CCCCNC(=O)CNC(=O)CCC(=O)NCCc1cnc[nH]1)NC(=O)[C@H](Cc1ccccc1)NC(=O)CN1CCN(CC(=O)O)CCN(CC(=O)O)CCN(CC(=O)O)CC1 [^177Lu-IMP-241, metal not drawn] ({DOTA}-FK([Gly-Suc-NH(2-(imidazol-4-yl)ethyl)])[dY]K([Gly-Suc-NH(2-(imidazol-4-yl)ethyl)])-NH2)
In vivo
  tissue uptake at 48 h: 0.94 ± 0.2 %ID/g
GW-39 [1]
  decrease in kidneys compared to the level seen at 24 h: ~45%
[2]; blood, Blood
  tissue uptake at 3 h: 1.48 ± 0.19 %ID/g
  tissue uptake at 24 h: 0.36 ± 0.05 %ID/g
[2]; kidney, Kidney
  tissue uptake at 3 h: 3.61 ± 0.43 %ID/g
  tissue uptake at 24 h: 0.18 ± 0.03 %ID/g
[2]; liver, Liver
  tissue uptake at 3 h: 0.46 ± 0.08 %ID/g
  tissue uptake at 24 h: 0.17 ± 0.04 %ID/g
[2]; lungs, Lungs
  tissue uptake at 3 h: 0.64 ± 0.12 %ID/g
  tissue uptake at 24 h: 0.17 ± 0.02 %ID/g
[2]; spleen, Spleen
  tissue uptake at 3 h: 0.36 ± 0.04 %ID/g
  tissue uptake at 24 h: 0.29 ± 0.07 %ID/g
[2]; tumor, Tumor
  tissue uptake at 3 h: 9.71 ± 2.49 %ID/g
  tissue uptake at 24 h: 2.59 ± 0.3 %ID/g

## ^99mTc-hMN-14 Fab′: humanized MN-14 anti-CEA Fab′ directly radiolabeled with ^99mTc
[3]
  immunoreactive fraction: 92%
GW-39 tumor; Blood
  Tumor/nontumor ratio: 1.0 ± 0.01
GW-39 tumor; Kidney
  Tumor/nontumor ratio: 0.02 ± 0.001
GW-39 tumor; Liver
  Tumor/nontumor ratio: 0.2 ± 0.02
GW-39 tumor; Lungs
  Tumor/nontumor ratio: 0.7 ± 0.1
GW-39 tumor; Spleen
  Tumor/nontumor ratio: 0.9 ± 0.4

## ^90Y-IMP-241: IMP 241 divalent HSG-DOTA peptide radiolabeled with ^90Y ({DOTA}-FK(HSG)YK(HSG)-NH2; not fully specified (residue 3); also: DOTA loaded with 90Y)
679 IgG
  binding to excess 679 IgG by size exclusion HPLC: binding to the antibody

## NC(=O)[C@H](CCCCNC(=O)CNC(=O)CCC(=O)NCCc1cnc[nH]1)NC(=O)[C@@H](Cc1ccc(O)cc1)NC(=O)[C@H](CCCCNC(=O)CNC(=O)CCC(=O)NCCc1cnc[nH]1)NC(=O)[C@H](Cc1ccccc1)NC(=O)CN1CCN(CC(=O)O)CCN(CC(=O)O)CCN(CC(=O)O)CC1 [IMP 241, DOTA-Phe-Lys(HSG)-D-Tys-Lys(HSG)-NH2] ({DOTA}-FK([Gly-Suc-NH(2-(imidazol-4-yl)ethyl)])[dY]K([Gly-Suc-NH(2-(imidazol-4-yl)ethyl)])-NH2)
[4]
  decomposed in mouse serum: ~5%
GW-39 [5]
  increase of tumor accretion by pretargeting compared to the peptide alone: ~100 fold
GW-39 [6]; Blood, 3 hour after peptide
  Percent Injected Dose Per Gram: 1.87 ± 0.97 % ID/g
GW-39 [6]; Kidney, 3 hour after peptide
  Percent Injected Dose Per Gram: 3.00 ± 0.87 % ID/g
GW-39 [6]; Liver, 3 hour after peptide
  Percent Injected Dose Per Gram: 0.57 ± 0.24 % ID/g
GW-39 [6]; Lungs, 3 hour after peptide
  Percent Injected Dose Per Gram: 0.81 ± 0.33 % ID/g
GW-39 [6]; Lungs, 24 hour after peptide
  Percent Injected Dose Per Gram: 0.24 ± 0.07 % ID/g
GW-39 [6]; Tumor, 3 hour after peptide
  Percent Injected Dose Per Gram: 8.76 ± 2.31 % ID/g
GW-39 [6]; Tumor, 24 hour after peptide
  Percent Injected Dose Per Gram: 2.54 ± 1.04 % ID/g

## COc1cccc2c1C(=O)c1c(O)c3c(c(O)c1C2=O)C[C@@](O)(C(=O)CO)C[C@@H]3O[C@H]1C[C@H](N)[C@H](O)[C@H](C)O1 [Doxorubicin]
[7]
  hepatobiliary clearance: ~95%

B1: Carboxylesterase-DTPA (conjugate)
chain: HPSAPPVVDTVHGKVLGKFVSLEGFAQPVAVFLGVPFAKPPLGSLRFAPPQPAESWSHVKNTTSYPPMCSQDAVSGHMLSELFTNRKENIPLKFSEDCLYLNIYTPADLTKRGRLPVMVWIHGGGLMVGGASTYDGLALSAHENVVVVTIQYRLGIWGFFSTGDEHSRGNWGHLDQVAALRWVQDNIANFGGDPGSVTIFGESAGGQSVSILLLSPLTKNLFHRAISESGVALLSSLFRKNTKSLAEKIAIEAGCKTTTSAVMVHCLRQKTEEELMEVTLKMKFMALDLVGDPKENTAFLTTVIDGVLLPKAPAEILAEKKYNMLPYMVGINQQEFGWIIPMQMLGYPLSEGKLDQKTATELLWKSYPIVNVSKELTPVATEKYLGGTDDPVKKKDLFLDMLADLLFGVPSVNVARHHRDAGAPTYMYEYRYRPSFSSDMRPKTVIGDHGDEIFSVLGAPFLKEGATEEEIKLSKMVMKYWANFARNGNPNGEGLPQWPAYDYKEGYLQIGATTQAAQKLKDKEVAFWTELWAKEAARPRETEHIEL
[8]
  enzymatic activity: 115 enzyme units/mg protein
hMN-14 Fab′×734 Fab′
  complexation with bi-specific antibody (HPLC): completely complexed
